# Experimental data: ChEMBL document CHEMBL6134767, “Advances in antibacterial agents for Mycobacterium fortuitum” (2025)
# Key:
# Format in all cases: functional
# [1] = tested on: Mycolicibacterium fortuitum; experiment: Antimycobacterial activity against Mycobacterium fortuitum ATCC 19542 assessed as bacterial growth inhibition incubated for 72 hrs by resazurin dye based broth microdilution method
# [2] = tested on: Mycolicibacterium fortuitum; experiment: Antimycobacterial activity against Mycobacterium fortuitum PCM 672 assessed as reduction in microbial growth incubated for 72 hrs by resazurin dye based broth microdilution method
# [3] = tested on: Mycolicibacterium fortuitum; experiment: Antibacterial activity against Mycobacterium fortuitum ATCC 6841 assessed as reduction in bacterial growth by micro-dilution method
# [4] = tested on: Mycolicibacterium fortuitum; experiment: Antibacterial activity against Mycobacterium fortuitum ATCC 6841 assessed as bacterial growth inhibition incubated for 4 days by CLSI protocol based broth micro-dilution method; conditions: ATCC 6841, 96 h, time 4 day
# [5] = tested on: Mycolicibacterium fortuitum; experiment: Antimycobacterial activity against Mycobacterium fortuitum ATCC 6841 assessed as reduction in microbial growth
# [6] = tested on: Mycolicibacterium fortuitum; experiment: Antibacterial activity against Mycobacterium fortuitum assessed as reduction in bacterial growth
# [7] = tested on: Mycolicibacterium fortuitum; experiment: Antibacterial activity against Mycobacterium fortuitum ATCC 6841 assessed as bacterial growth inhibition incubated for 72 hrs by CLSI protocol based micro-dilution method
# [8] = tested on: Mycolicibacterium fortuitum; experiment: Antibacterial activity against Mycobacterium fortuitum ATCC 49404 assessed as bacterial growth inhibition incubated for 72 hrs by CLSI protocol based micro-dilution method
smiles,measurement,setting,value
CC(NC(=O)C1=CC(c2cc(Br)ccc2F)N2N=CNC2=N1)c1ccccc1 (stereo not given),MIC,[1],2.26 µM
Cc1noc(N)c1C(=O)N/N=C/c1ccncc1,MIC,[2],0.14 µM
C=C1[C@@H](C)CC[C@@]2(C)[C@H]1CC=C(C=O)[C@]2(O)C=O,MIC,[3],64.4 µM
COc1ccc(/C=N/NC(=O)c2c(C)noc2N)cc1,MIC,[2],0.24 µM
CC1(C)CCC(Cc2cc(O)c(-c3ccccc3)c(=O)[nH]2)CC1,MIC,[4],0.13 µM
O=c1cc(-c2ccc(O)c(O)c2)oc2cc(O)cc(O)c12 [LUTEOLIN],MIC,[5],0.12 µM
Cc1noc(N)c1C(=O)N/N=C/c1ccc([N+](=O)[O-])cc1,MIC,[2],51.1 µM
C[C@]12CC[C@@H]3c4ccc(OCCCCCCC[n+]5ccccc5)cc4CC[C@H]3[C@@H]1CCC2=O,MIC,[6],3.81 µM
Cc1noc(N)c1C(=O)N/N=C/c1ccc(Cl)cc1Cl,MIC,[2],55.3 µM
CC(C)c1c(O)ccc2c1CC[C@H]1C(C)(C)CCC[C@]21C [TOTAROL],MIC,[3],14 µM
CC(C)=CCC/C(C)=C/CNCCNC1C2CC3CC(C2)CC1C3 (stereo not given) [SQ109],MIC,[6],3.02 µM
C=C1[C@H]2CC[C@@H]3[C@H]2C(C)(C)CCC[C@]13C [LONGIFORENE],MIC,[3],> 0.63 µM
C=C[C@@](C)(O)CC/C=C(/C)CCC=C(C)C [NEROLIDIOL],MIC,[3],44.5 µM
C[C@H]1c2cccc(O)c2C(=O)C2=C(O)[C@]3(O)C(=O)C(C(N)=O)=C(O)[C@@H](N(C)C)[C@@H]3[C@@H](O)[C@@H]21 [DOXYCYCLINE ANHYDROUS],MIC,[7],0.56 µM
CC(C)/C(=C/CN(C)C)CC[C@@H](C)[C@H]1CC[C@H]2C3=CC[C@H]4C[C@@H](N(C)C)CC[C@]4(C)[C@H]3CC[C@]12C,MIC,[6],67.2 µM
Cc1noc(N)c1C(=O)N/N=C/c1ccc(C(F)(F)F)cc1,MIC,[2],0.21 µM
Cc1cc(O)c([C@]2(C)CC[C@@H]3C[C@@]32C)cc1Br,MIC,[3],42.3 µM
O=c1cc(-c2ccc(O)cc2)oc2c([C@@H]3O[C@H](CO)[C@@H](O)[C@H](O)[C@H]3O)c(O)cc(O)c12,MIC,[5],69.4 µM
C=C1C[C@@]23CC[C@H]4[C@@](C)(CCC[C@@]4(C)C=O)[C@@H]2CC[C@@H]1C3,MIC,[3],51.6 µM
CCN(C(=O)C1=CC(c2cc(Br)ccc2F)N2N=CNC2=N1)c1ccccc1 (stereo not given),MIC,[1],2.26 µM
Cc1noc(N)c1C(=O)N/N=C/c1ccc(Cl)c(Cl)c1,MIC,[2],0.21 µM
NCC[C@H](O)C(=O)N[C@@H]1C[C@H](N)[C@@H](O[C@H]2O[C@H](CN)[C@@H](O)[C@H](O)[C@H]2O)[C@H](O)[C@H]1O[C@H]1O[C@H](CO)[C@@H](O)[C@H](N)[C@H]1O [AMIKACIN],MIC,[7],3.41 µM
same,MIC,[8],5.33 µM
C#CCNC(=O)C1=CC(c2cc(Br)ccc2F)N2N=CNC2=N1 (stereo not given),MIC,[1],2.65 µM
Cc1cc(NS(=O)(=O)c2ccc(N)cc2)no1 [SULFAMETHOXAZOLE],MIC,[7],126 µM
